According to patent publication US7524880B2, “Crystalline form of a substituted pyrrolidine compound” (Theravance, Inc., priority 2004, dated 2009):
Structures can show the parent of a compound that is named as a salt. One block for each molecule: values may come before it.

Assays:
[1] = system: MCh-induced depressor responses; assay: Methacholine-induced depressor responses in conscious guinea pigs; assay type: in vivo; conditions: conscious guinea pig, inhalation
Excerpt: Healthy, adult, male Sprague-Dawley guinea pigs (Harlan, Indianapolis, Ind.), weighing between 200 and 300 g were used in these studies. Under isoflurane anesthesia (to effect), animals were instrumented with common carotid artery and jugular vein catheters (PE-50 tubing). The catheters were exteriorized utilizing a subcutaneous tunnel to the subscapular area. All surgical incisions were sutured with 4-0 Ethicon Silk and the catheters locked with heparin (1000 units/mL). Each animal was administered saline (3 mL, SC) at the end of surgery as well as buprenorphine (0.05 mg/kg, IM). Animals were allowed to recover on a heating pad before being returned to their holding rooms.
Approximately 18 to 20 hours following surgery, the animals were weighed and the carotid artery catheter on each animal was connected to a transducer for recording arterial pressure. Arterial pressure and heart rate was recorded using a Biopac MP-100 Acquisition System. Animals were allowed to acclimate and stabilize for a period of 20 minutes.
Each animal was challenged with methylcholine (MCh) (0.3 mg/kg, iv) administer through the jugular venous line and the cardiovascular response was monitored for 10 minutes. […] At 1.5 and 24 h post-dosing, the animals were re-challenged with MCh (0.3 mg/kg, iv) and the hemodynamic response was determined. […]

[2] = Thermal analysis (DSC/TGA); assay type: physicochemical; conditions: heating ramp 5° C./min, ambient to about 300° C.
Experimental: Differential scanning calorimetry (DSC) was performed using a TA Instruments Model Q-10 module with a Thermal Analyst controller. Data were collected and analyzed using TA Instruments Thermal Solutions software. A sample of about 1 mg was accurately weighed into an aluminum pan with lid. The sample was evaluated using a linear heating ramp of 5° C./min from ambient temperature to approximately 300° C. The DSC cell was purged with dry nitrogen during use. A representative DSC trace for a sample of the crystalline naphthalene-1,5-disulfonic acid salt of 2-[(S)-1-(8-methylaminooctyl)pyrrolidin-3-yl]-2,2-diphenylacetamide of Example 5 is shown in FIG. 2.
Thermogravimetric analysis (TGA) was performed using a TA Instruments Model Q-50 module equipped with high resolution capability. Data were collected and analyzed using TA Instruments Thermal Solutions software. A sample weighing about 10 mg was placed onto a platinum pan and scanned with a high resolution-heating rate from ambient temperature to 300° C. The balance and furnace chambers were purged with nitrogen flows during use. A representative TGA trace for a sample of the crystalline naphthalene-1,5-disulfonic acid salt of 2-[(S)-1-(8-methylaminooctyl)pyrrolidin-3-yl]-2,2-diphenylacetamide of Example 5 is shown in FIG. 2.

[3] = Dynamic moisture sorption assessment; assay type: physicochemical; conditions: for deliquescence: exposed to atmospheric moisture
Experimental: A dynamic moisture sorption (DMS) assessment (also known as a moisture sorption-desorption profile) was performed for a sample of a crystalline naphthalene-1,5-disulfonic acid salt of 2-[(S)-1-(8-methylaminooctyl)pyrrolidin-3-yl]-2,2-diphenylacetamide (prepared according to the procedure of Example 5) using a VTI atmospheric microbalance, SGA-100 system (VTI Corp., Hialeah, Fla. 33016). A sample size of approximately 10 mg was used and the humidity was set at the ambient value at the start of the analysis. A typical DMS analysis consisted of three scans: ambient to 2% RH, 2% RH to 90% RH, 90% RH to 5% RH at a scan rate of 5% RH/step. The mass was measured every two minutes and the RH was changed to the next value (+/−5% RH) when the mass of the sample was stable to within 0.01% for 5 consecutive points.
The salt has an acceptable 1.9% weight gain when it exposed to a broad humidity range from 2% RH up to 90% RH and it has a less than 1% weight gain in the humidity range of 40% RH to 75% RH.

[4] = Solid state stability assessment (HPLC); assay type: physicochemical
Experimental: Samples of the crystalline naphthalene-1,5-disulfonic acid salt of 2-[(S)-1-(8-methylaminooctyl)pyrrolidin-3-yl]-2,2-diphenylacetamide of Example 5, about 30 mg each, were stored in multiple 3 mL borosilicate vials at −20° C. (closed container), 40° C./75% RH (open and closed container), and at 80° C. (closed container). At specific intervals, the entire contents of a representative vial was analyzed by the following HPLC method:
Samples were prepared as 1 mg/mL solutions using 50% EtOH and 50% citrate buffer (10 mM pH 5 in normal saline). These solutions were then injected onto the HPLC.
The initial purity of the samples was 99.5% as determined by HPLC area percentage. […] (closed container) and 40° C./75% RH (open and closed container).

[5] = Solution state stability assessment (HPLC); assay type: physicochemical; conditions: for change in purity (HPLC): 1 mg/mL and 0.1 mg/mL in normal saline, 10 mM citrate pH 5
Experimental: Samples of the crystalline naphthalene-1,5-disulfonic acid salt of 2-[(S)-1-(8-methylaminooctyl)pyrrolidin-3-yl]-2,2-diphenylacetamide of Example 5 were used to prepare an inhalation solution consisting of 1 mg/mL and 0.1 mg/mL salt in normal saline with 10 mM citrate buffer adjusted to pH 5. The resulting solutions were placed in 3 mL borosilicate vials and stoppered with Teflon grey plug stoppers. The solutions were then stored at −20° C., 5° C., 30° C., 60° C. The samples were analyzed according to the HPLC method described in Example 10. After approximately six months for the solutions stored at −20° C., 5° C., and 30° C. there was no detectable change in purity observed (less than 0.5%) for samples stored at 60° C. less than 5% change in purity was observed.

[6] = Micronization with a jet mill, comparison with unmicronized material; assay type: physicochemical; conditions: micronized compared to unmicronized material
Excerpt: A sample of a crystalline naphthalene-1,5-disulfonic acid salt of 2-[(S)-1-(8-methylaminooctyl)pyrrolidin-3-yl]-2,2-diphenylacetamide (prepared according to the procedure of Examples 4 and 5) was micronized with a jet mill to give a free-flowing white powder with birefringence observed upon microscopic examination.

[7] = solid, 3 months, all conditions

SMILES: CNCCCCCCCCN1CC[C@@H](C(C(N)=O)(c2ccccc2)c2ccccc2)C1 [Example 1, 2-[(S)-1-(8-Methylaminooctyl)pyrrolidin-3-yl]-2,2-diphenylacetamide]
apparent lung-selectivity index (ratio of anti-depressor ID50 to bronchoprotective ID50) [1]: greater than 5

thermal decomposition (DSC) [2]: no thermal decomposition below 200 °C | weight gain on exposure to humidity ([3]; 2% RH up to 90% RH): 1.9% | weight gain on exposure to humidity ([3]; 2% RH up to 90% RH, listed as crystalline naphthalene-1,5-disulfonic acid salt of the compound of formula I): less than 2% | deliquescence [3]: not deliquescent | deliquescence ([3]; listed as crystalline naphthalene-1,5-disulfonic acid salt): not to be deliquescent | weight gain on exposure to humidity ([3]; humidity range of 40% RH to 75% RH): less than 1% | hygroscopicity (moderate) ([3]; reversible sorption/desorption profile): < 5% | chemical degradation by HPLC ([4]; 6 months storage at 40° C. and 75% relative humidity): no detectable chemical degradation | change in the appearance of the material [4, 7]: no observable change | differences by DSC and TGA [4, 7]: no detectable differences | change in chemical purity (HPLC) ([4]; solid, 3 months, all conditions: −20° C. closed, 40° C./75% RH open and closed, 80° C. closed): less than 0.5% | chemical degradation by HPLC ([4]; storage for 28 days at 40° C. and 75% relative humidity): less than 0.5% | change in purity (HPLC) ([5]; approximately six months at 60° C.): less than 5% | change in purity (HPLC) ([5]; approximately six months at −20° C., 5° C. and 30° C.): less than 0.5% | change in pH values of solutions ([5]; inhalation solutions in normal saline, 10 mM citrate pH 5, approximately six months): no appreciable change
SMILES: CNCCCCCCCCN1CC[C@@H](C(C(N)=O)(c2ccccc2)c2ccccc2)C1 [Example 5, 2-[(S)-1-(8-Methylaminooctyl)pyrrolidin-3-yl]-2,2-diphenylacetamide Naphthalene-1,5-disulfonic Acid Salt]
chemical or physical differences ([4]; solid, 6 months at −20° C. (closed) and 40° C./75% RH (open and closed)): no detectable chemical or physical differences

change in PXRD pattern, TGA trace, DSC trace, DMS trace, chemical purity, chiral purity and moisture content [6]: No change was observed
SMILES: CNCCCCCCCCN1CC[C@@H](C(C(N)=O)(c2ccccc2)c2ccccc2)C1 [Example 14, naphthalene-1,5-disulfonic acid salt of 2-[(S)-1-(8-methylaminooctyl)pyrrolidin-3-yl]-2,2-diphenylacetamide]
